Data reported in ChEMBL document CHEMBL1201862, “PubChem BioAssay data set” (2004).
Active and inactive are the calls of the source.

Tests used:
[1] = target: Induced myeloid leukemia cell differentiation protein Mcl-1 (Homo sapiens, UniProt Q07820); format: functional
[2] = target: Intestinal-type alkaline phosphatase (Mus musculus, UniProt P24822); assay: PubChem AID 488785; format: functional
[3] = target: Intestinal-type alkaline phosphatase (Homo sapiens, UniProt P09923); assay: inhibition of human intestinal alkaline phosphatase – biochemical, dose response (AID 488876); format: functional
[4] = target: T1, Calpain-2 catalytic subunit (Sus scrofa, UniProt P43367); assay: pig calpain II inhibitor potency, dose response, biochemical, fluorogenic peptide substrate (AID 1420); format: functional
T1 sequence (P43367 whole entry): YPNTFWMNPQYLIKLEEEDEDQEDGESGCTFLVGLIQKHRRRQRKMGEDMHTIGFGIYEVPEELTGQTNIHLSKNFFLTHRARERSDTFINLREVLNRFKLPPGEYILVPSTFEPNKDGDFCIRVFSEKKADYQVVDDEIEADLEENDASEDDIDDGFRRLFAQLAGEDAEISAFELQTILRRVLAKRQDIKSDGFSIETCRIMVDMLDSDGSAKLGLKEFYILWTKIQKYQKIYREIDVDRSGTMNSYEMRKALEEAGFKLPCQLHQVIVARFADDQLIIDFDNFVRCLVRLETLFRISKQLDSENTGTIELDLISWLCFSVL

[5] = target: T2, Alkaline phosphatase, tissue-nonspecific isozyme (Homo sapiens, UniProt P05186); assay: TNAP enzyme inhibition by screening hits, dose response, selectivity assay for mouse IAP inhibitor project, biochemical, human TNAP, uHTS hits (AID 488906); format: functional
T2 sequence (P05186 whole entry): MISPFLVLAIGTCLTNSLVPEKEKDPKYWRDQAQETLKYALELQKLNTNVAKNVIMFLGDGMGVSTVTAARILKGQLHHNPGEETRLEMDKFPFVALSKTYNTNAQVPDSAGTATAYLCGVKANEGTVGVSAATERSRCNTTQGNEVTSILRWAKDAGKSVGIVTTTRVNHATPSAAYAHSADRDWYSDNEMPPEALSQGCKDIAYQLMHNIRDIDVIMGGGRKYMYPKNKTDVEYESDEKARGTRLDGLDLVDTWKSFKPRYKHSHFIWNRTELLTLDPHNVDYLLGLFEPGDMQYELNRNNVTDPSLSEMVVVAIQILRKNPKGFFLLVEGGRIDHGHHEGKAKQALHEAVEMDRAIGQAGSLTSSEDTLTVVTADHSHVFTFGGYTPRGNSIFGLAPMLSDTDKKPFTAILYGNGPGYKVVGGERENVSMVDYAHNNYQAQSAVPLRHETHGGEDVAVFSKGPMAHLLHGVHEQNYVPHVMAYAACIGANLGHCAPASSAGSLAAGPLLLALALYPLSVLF

Aminopeptidase N = Aminopeptidase N (Plasmodium falciparum FcB1/Columbia, UniProt O96935); assay: P. falciparum M1AAP inhibitors, biochemical, fluorogenic H-Leu-NHMec substrate, 1536-well (AID 1445); parameters: species or system Plasmodium falciparum 3D7, 3D7
Large T antigen = Large T antigen (Simian virus 40, UniProt P03070); format: functional, Betapolyomavirus macacae;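 note: Confirmatory-stage PubChem screen for compounds that inhibit SV40 T antigen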
[6] = target: Bifunctional protein GlmU (Mycobacterium tuberculosis, UniProt P9WMN3); assay: Inhibitors of Mycobacterial Glucosamine-1-phosphate acetyl transferase (GlmU). Secondary screen.; parameters: species or system Mycobacterium tuberculosis H37Rv
Hexokinase-1 = Hexokinase-1 (Homo sapiens, UniProt P19367); assay: hexokinase 1 activators, dose response, selectivity assay for HKDC1 activator project, biochemical (AID 504762); format: functional
Hexokinase HKDC1 = target: T3, Hexokinase HKDC1 (Homo sapiens, UniProt Q2TB90); assay: HKDC1 hexokinase activators, dose response, biochemical, W721R variant (AID 504730); format: functional
T3 sequence (Q2TB90 whole entry): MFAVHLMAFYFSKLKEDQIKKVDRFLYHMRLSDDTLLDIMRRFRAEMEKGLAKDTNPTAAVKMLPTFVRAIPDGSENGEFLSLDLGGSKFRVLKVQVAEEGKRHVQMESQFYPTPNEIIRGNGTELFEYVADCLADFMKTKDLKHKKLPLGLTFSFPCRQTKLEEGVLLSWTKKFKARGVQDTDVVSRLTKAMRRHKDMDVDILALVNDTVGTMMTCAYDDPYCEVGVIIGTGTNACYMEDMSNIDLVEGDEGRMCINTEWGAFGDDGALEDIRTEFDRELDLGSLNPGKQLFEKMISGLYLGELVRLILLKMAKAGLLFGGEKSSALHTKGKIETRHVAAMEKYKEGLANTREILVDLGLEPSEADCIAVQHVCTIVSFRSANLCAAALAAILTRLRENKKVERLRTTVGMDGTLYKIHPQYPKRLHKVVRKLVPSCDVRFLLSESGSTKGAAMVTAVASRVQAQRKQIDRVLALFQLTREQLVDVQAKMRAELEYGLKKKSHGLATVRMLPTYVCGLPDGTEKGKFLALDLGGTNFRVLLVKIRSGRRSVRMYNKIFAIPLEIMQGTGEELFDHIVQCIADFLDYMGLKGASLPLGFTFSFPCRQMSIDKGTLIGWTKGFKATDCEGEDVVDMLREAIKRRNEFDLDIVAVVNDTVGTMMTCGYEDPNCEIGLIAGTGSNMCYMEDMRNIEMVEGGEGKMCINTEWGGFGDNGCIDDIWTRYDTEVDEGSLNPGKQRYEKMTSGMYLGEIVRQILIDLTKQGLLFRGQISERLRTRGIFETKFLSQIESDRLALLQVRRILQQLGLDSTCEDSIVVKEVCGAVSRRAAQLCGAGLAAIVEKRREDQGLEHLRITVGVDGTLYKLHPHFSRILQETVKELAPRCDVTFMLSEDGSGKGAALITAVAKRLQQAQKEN

[7] = target: Lysine-specific demethylase 4C (Homo sapiens, UniProt Q9H3R0); assay: GASC-1 (JMJD2C) histone demethylase inhibitors, dose response, biochemical, DELFIA europium, cherry-picked samples (AID 488835); format: functional
[8] = target: T4, Ubiquitin-conjugating enzyme E2 N (Homo sapiens, UniProt P61088); format: functional
T4 sequence (P61088 whole entry): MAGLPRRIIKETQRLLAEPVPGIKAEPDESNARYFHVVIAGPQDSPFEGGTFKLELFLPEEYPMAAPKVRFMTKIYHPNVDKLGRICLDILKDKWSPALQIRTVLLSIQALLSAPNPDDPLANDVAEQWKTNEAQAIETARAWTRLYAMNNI

[9] = target: T4, Ubiquitin-conjugating enzyme E2 N; format: functional; remark: listed apart in the source
Bcl-2-related protein A1 = target: T5, Bcl-2-related protein A1 (Mus musculus, UniProt Q07440); format: functional;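 note: confirmatory dose–response counterscreen on Bfl-1, used to check hits from a UBC13 polyubiquitin inhibitor campaign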
T5 sequence (Q07440 whole entry): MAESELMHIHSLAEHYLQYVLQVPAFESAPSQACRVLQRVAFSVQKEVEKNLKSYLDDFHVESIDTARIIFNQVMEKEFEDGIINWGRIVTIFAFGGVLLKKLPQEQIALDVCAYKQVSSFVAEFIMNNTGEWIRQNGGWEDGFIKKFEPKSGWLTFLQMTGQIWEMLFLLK

[10] = Luminescence Cell-Based Dose Response HTS to Identify Activators of Luciferase Translation or Activity in H4-C Neuroglioblastoma Cells. [Related pubchem assays: 1829 (Project Summary), 1814 (Primary HTS)]; format: functional
[11] = Luminescence Cell-Based Dose Retest to Confirm Activators of 5'UTR Stem-Loop Driven Alpha-Synuclein mRNA Translation in H4 Neuroglioblastoma Cells. [Related pubchem assays (depositor defined):AID1813, AID1829]; format: functional
[12] = Luminescence Cell-Based Dose Response HTS to Identify Inhibitors of Luciferase Translation or Activity in H4-C Neuroglioblastoma Cells. [Related pubchem assays: 1813 (Primary HTS), 1827 (Project Summary)]; format: functional
[13] = Luminescence Cell-Based Dose HTS Response to Identify Inhibitors of 5'UTR Stem-Loop Driven Prion Protein mRNA Translation in H4-C Neuroglioblastoma Cells. [Related pubchem assays (depositor defined):AID1814, AID1827]; format: functional
[14] = Luminescence Cell-Based Dose Response HTS to Identify Activators of 5'UTR Stem-Loop Driven Prion Protein mRNA Translation in H4-C Neuroglioblastoma Cells. [Related pubchem assays: 1829 (Project Summary), 1814 (Primary HTS)]; format: functional
[15] = Luminescence Cell-Based Dose Confirmation HTS to Identify Inhibitors of 5'UTR Stem-Loop Driven Alpha-Synuclein mRNA Translation in H4 Neuroglioblastoma Cells. [Related pubchem assays: 1827 (Project Summary), 1813 (Primary HTS)]; format: functional
[16] = target: Signal transducer and activator of transcription 3 (Homo sapiens, UniProt P40763); assay: STAT3 inhibitors, late-stage profile, late-stage follow-up, cell-based, STAT1 panel, qPCR, cytotoxicity, panel member STAT3 Inhibition (AID 2078)
[17] = target: Signal transducer and activator of transcription 1-alpha/beta (Homo sapiens, UniProt P42224); assay: STAT3 inhibitors, late-stage profile, late-stage follow-up, cell-based, STAT1 panel, qPCR, cytotoxicity, panel member STAT1 Inhibition (AID 2078)
Cannabinoid receptor 1 [18] = target: T6, Cannabinoid receptor 1 (Homo sapiens, UniProt P21554); assay: SAR analysis of antagonists of the Cannabinoid Receptor 1 using an Image-Based Assay - Set 4. [Related pubchem assays (depositor defined):AID2013, AID2026]; format: functional
Cannabinoid receptor 2 [19] = target: T7, Cannabinoid receptor 2 (Homo sapiens, UniProt P34972); assay: SAR analysis of antagonists of the Cannabinoid Receptor 2 using an Image-Based Assay - Set 3. [Related pubchem assays (depositor defined):AID2013, AID2026]; format: functional
[20] = target: T8, G-protein coupled receptor 55 (Homo sapiens, UniProt Q9Y2T6); assay: SAR Analysis of Selective Antagonists of GPR55 using an Image-Based Assay - Set 4. [Related pubchem assays (depositor defined):AID2013, AID2026]; format: functional
[21] = target: T9, G-protein coupled receptor 35 (Homo sapiens, UniProt Q9HC97); assay: SAR analysis of Agonists of the GPR35 Receptor using an Image-Based Assay - Set 4. [Related pubchem assays (depositor defined):AID2013, AID2026]; format: functional
Cannabinoid receptor 2 [22] = target: T7, Cannabinoid receptor 2; assay: SAR analysis of agonists of the Cannabinoid Receptor 2 using an Image-Based Assay - Set 3. [Related pubchem assays (depositor defined):AID2013, AID2026]; format: functional
[23] = target: T9, G-protein coupled receptor 35; assay: SAR analysis of Antagonists of the GPR35 Receptor using an Image-Based Assay - Set 6. [Related pubchem assays (depositor defined):AID2013, AID2026]; format: functional
Cannabinoid receptor 1 [24] = target: T6, Cannabinoid receptor 1; assay: SAR analysis of agonists of the Cannabinoid Receptor 1 using an Image-Based Assay - Set 4. [Related pubchem assays (depositor defined):AID2013, AID2026]; format: functional
[25] = target: Kappa-type opioid receptor (Homo sapiens, UniProt P41145); assay: SAR analysis of small molecule agonists of the kappa opioid receptor via a luminescent beta-arrestin assay - Set 3. [Related pubchem assays (depositor defined):AID1777, AID1785, AID1786, AID1966, AID2133, AID2136, AID2284, AID2500]; format: functional
[26] = target: T8, G-protein coupled receptor 55; assay: GPR55 antagonists, SAR follow-up, counter-screen for GPR35 antagonist project, imaging, image-based (AID 2397); format: functional

T9 sequence (Q9HC97 whole entry): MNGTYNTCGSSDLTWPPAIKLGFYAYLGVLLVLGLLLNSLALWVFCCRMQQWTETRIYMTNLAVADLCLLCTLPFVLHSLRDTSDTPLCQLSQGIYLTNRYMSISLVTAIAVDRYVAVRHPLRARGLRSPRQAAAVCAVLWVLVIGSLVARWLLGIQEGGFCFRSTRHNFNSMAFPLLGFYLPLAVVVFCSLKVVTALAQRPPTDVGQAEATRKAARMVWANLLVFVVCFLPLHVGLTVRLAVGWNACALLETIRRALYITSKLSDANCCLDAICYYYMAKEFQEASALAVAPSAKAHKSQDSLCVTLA
T8 sequence (Q9Y2T6 whole entry): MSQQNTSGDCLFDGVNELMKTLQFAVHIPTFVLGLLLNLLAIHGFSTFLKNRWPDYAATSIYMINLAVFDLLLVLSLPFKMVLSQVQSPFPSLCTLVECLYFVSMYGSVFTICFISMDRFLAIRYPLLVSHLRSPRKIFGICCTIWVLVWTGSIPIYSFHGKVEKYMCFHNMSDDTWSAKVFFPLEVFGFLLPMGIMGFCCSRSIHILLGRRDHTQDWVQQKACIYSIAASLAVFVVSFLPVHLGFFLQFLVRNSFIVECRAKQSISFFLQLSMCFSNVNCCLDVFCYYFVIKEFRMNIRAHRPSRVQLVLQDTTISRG
T7 sequence (P34972 whole entry): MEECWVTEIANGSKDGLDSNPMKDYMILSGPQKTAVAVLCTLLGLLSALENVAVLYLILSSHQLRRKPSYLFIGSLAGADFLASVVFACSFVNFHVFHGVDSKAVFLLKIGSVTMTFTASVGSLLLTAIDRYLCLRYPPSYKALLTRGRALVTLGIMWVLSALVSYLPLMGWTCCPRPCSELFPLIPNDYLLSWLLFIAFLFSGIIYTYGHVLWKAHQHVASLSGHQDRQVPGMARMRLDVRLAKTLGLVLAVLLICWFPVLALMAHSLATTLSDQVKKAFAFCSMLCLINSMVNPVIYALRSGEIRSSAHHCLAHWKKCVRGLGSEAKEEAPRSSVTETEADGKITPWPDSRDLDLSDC
T6 sequence (P21554 whole entry): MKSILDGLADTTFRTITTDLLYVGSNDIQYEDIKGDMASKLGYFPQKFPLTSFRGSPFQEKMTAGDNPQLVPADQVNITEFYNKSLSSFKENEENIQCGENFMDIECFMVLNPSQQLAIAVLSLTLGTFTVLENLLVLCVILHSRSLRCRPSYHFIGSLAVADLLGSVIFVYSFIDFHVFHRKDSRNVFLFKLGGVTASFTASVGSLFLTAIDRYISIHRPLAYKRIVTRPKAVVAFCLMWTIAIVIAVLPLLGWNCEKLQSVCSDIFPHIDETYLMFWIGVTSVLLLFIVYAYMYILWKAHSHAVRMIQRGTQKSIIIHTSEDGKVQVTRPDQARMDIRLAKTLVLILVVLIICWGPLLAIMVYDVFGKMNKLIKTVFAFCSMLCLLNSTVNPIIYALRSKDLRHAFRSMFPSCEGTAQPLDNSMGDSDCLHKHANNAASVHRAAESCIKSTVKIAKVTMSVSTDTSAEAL
Chain of Aminopeptidase N (O96935 whole entry): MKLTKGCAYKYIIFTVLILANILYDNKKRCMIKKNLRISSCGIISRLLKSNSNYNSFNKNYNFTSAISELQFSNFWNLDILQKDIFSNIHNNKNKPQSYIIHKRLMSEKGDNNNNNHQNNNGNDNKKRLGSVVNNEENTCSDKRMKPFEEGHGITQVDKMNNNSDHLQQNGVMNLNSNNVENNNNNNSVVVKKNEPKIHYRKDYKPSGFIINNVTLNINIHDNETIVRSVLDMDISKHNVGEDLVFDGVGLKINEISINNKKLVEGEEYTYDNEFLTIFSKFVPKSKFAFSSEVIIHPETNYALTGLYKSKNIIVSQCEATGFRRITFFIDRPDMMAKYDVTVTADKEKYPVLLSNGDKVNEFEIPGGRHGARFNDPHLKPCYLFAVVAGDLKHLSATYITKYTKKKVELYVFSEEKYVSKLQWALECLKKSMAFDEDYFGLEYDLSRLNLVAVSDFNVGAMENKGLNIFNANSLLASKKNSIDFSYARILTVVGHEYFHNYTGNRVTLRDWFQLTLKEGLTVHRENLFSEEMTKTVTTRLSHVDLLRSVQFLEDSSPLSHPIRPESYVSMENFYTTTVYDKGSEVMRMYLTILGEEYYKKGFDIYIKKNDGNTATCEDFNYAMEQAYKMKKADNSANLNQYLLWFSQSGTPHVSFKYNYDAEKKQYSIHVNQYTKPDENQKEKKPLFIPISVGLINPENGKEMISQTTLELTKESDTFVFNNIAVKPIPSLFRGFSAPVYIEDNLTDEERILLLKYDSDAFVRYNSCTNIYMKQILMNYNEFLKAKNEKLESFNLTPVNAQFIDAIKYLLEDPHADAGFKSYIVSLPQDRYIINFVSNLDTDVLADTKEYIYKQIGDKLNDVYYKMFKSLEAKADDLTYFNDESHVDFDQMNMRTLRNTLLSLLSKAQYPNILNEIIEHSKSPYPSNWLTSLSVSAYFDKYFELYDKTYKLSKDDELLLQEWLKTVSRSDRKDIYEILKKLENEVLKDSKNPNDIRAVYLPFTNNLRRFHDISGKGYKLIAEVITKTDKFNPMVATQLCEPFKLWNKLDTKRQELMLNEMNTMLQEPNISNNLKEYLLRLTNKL
Chain of Signal transducer and activator of transcription 1-alpha/beta (P42224 whole entry): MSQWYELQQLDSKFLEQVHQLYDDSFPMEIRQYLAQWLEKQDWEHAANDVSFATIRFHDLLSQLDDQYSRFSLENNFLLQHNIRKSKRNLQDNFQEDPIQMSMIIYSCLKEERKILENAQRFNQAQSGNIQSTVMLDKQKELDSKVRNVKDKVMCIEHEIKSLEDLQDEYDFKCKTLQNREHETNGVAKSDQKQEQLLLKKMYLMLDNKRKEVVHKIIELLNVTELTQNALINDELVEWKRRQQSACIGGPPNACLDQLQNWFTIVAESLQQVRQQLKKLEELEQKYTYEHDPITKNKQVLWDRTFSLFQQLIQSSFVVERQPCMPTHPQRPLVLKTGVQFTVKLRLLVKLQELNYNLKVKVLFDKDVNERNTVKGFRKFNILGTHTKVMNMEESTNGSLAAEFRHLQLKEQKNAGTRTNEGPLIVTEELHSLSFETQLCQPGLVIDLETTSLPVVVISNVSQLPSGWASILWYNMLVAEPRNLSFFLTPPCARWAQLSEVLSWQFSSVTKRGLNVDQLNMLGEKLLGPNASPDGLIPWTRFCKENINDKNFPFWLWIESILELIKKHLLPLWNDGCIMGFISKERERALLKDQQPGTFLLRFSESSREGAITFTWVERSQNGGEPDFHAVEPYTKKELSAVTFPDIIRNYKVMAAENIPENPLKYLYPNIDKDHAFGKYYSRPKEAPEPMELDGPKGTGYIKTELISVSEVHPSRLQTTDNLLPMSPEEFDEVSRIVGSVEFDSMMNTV
Chain of Signal transducer and activator of transcription 3 (P40763 whole entry): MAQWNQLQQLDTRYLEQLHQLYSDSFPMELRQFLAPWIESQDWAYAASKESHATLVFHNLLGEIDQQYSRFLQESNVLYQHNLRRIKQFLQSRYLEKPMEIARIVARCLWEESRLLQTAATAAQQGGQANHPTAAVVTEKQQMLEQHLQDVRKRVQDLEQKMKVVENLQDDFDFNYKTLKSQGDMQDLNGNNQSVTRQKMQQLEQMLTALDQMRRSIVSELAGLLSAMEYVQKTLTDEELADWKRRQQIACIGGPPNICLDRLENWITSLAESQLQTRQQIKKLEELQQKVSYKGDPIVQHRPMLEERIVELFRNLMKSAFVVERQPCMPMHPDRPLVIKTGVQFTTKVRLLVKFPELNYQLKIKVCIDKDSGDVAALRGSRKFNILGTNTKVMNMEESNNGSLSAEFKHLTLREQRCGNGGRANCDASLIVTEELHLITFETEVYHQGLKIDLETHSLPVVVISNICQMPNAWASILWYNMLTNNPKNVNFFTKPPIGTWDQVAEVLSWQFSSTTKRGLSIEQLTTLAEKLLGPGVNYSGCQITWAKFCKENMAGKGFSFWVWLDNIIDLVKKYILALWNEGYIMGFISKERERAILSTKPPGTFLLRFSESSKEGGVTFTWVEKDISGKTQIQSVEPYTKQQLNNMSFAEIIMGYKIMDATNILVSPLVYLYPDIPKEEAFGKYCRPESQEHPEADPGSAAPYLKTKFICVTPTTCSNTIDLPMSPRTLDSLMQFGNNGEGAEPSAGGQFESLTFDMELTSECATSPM
Chain of Hexokinase-1 (P19367 whole entry): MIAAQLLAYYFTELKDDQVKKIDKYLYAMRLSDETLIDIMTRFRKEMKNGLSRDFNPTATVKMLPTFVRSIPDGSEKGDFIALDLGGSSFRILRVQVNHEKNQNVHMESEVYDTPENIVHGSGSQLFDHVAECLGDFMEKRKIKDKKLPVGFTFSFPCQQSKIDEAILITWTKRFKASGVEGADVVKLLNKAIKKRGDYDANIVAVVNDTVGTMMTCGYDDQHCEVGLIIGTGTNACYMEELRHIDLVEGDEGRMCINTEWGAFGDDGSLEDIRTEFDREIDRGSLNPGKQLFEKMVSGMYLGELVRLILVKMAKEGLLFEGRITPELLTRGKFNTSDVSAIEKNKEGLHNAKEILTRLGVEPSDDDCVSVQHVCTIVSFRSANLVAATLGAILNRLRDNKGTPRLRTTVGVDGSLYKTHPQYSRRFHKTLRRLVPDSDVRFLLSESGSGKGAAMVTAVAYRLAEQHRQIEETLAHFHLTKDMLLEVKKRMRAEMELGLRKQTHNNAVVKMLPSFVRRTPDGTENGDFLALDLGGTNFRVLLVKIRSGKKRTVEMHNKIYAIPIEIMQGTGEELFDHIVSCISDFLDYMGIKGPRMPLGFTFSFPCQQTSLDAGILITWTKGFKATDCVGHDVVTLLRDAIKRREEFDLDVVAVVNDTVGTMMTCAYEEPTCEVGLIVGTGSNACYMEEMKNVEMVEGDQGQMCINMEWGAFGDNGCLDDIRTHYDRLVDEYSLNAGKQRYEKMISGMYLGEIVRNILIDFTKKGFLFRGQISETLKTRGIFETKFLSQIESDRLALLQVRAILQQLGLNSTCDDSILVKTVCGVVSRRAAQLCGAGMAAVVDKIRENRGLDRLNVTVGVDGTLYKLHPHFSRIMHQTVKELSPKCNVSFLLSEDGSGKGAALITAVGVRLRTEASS

With `O=C(NN1C(=O)/C(=C/C=C/c2ccco2)SC1=S)c1ccccc1O` the IC50 [1] was 2.42 µM (active), the IC50 [2] was 15.8 µM (active) and the IC50 [3] was 30.7 µM (active). For the same compound, the IC50 [4] was 47.6 µM (not active), the IC50 [5] was 25.9 µM (active) and the IC50 (Aminopeptidase N) was 73.5 µM (active). For the same compound, the IC50 (Large T antigen) was 18.8 µM (active) and the IC50 [6] was 80.6 µM (active).

In the case of `CCc1c(C)c(C#N)c2nc3ccccc3n2c1NC`, the EC50 (Hexokinase-1) is reported as 21.1 µM (inactive) and the EC50 (Hexokinase HKDC1) is reported as 44.8 µM (inactive).

In the case of `CN1C(=O)N(C)C(=O)C2(Cc3ccccc3N3CCCC32)C1=O` (stereo unspecified), the AC50 [7] is reported as 14.2 µM (active).

In the case of `CN(C)CCCN(C(=O)c1ccc(S(=O)(=O)N2CCCCCC2)cc1)c1nc2ccc(Br)cc2s1`, the IC50 [8] is reported as 13.4 µM (active), the IC50 [9] is reported as 10.3 µM (active) and the IC50 (Bcl-2-related protein A1) is reported as > 20 µM (inactive).

For `COC(=O)c1c(NC(=O)c2ccc([N+](=O)[O-])o2)sc2c1CCN(C(C)C)C2`, the EC50 [10] was 2.12 µM (inconclusive), the EC50 [11] was 1.88 µM (inconclusive) and the EC50 [12] was 1.33 µM (active). For the same compound, the EC50 [13] was 2.94 µM (active), the EC50 [14] was 2.23 µM (inconclusive) and the EC50 [15] was 3.35 µM (active).

For `O=C(c1ccc(Cl)cc1)C1CCN(c2ncnc3sccc23)CC1`, the IC50 [16] was 0.837 µM (active) and the IC50 [17] was > 55.7 µM (inactive).

In the case of `O=C(Cc1ccc2c(c1)OCO2)N1CCC(n2nc(-c3ccccc3)oc2=O)CC1`, the IC50 (Cannabinoid receptor 1 [18]) is reported as 15.8 µM (inactive), the IC50 (Cannabinoid receptor 2 [19]) is reported as > 32 µM (inactive) and the IC50 [20] is reported as > 32 µM (inactive). The EC50 [21] was > 32 µM (inactive), the EC50 (Cannabinoid receptor 2 [22]) was > 32 µM (inactive) and the IC50 [23] was > 32 µM (inactive). For the same compound, the EC50 (Cannabinoid receptor 1 [24]) was > 32 µM (inactive).

With `Clc1ccccc1Cn1c(SCc2ccccc2)nnc1-c1ccccn1` the EC50 [25] was > 20 µM (inactive).

With `Clc1ccc(Cn2ncc3c(N4CCN(c5cccc(Cl)c5)CC4)ncnc32)cc1` the IC50 [26] was > 32 µM (inactive).
